Experimental data from patent publication EP0061001A1, “Antiallergic agent comprising derivatives of adenosine” (Yamasa Shoyu Kabushiki Kaisha, priority 1981, dated 1982).
Where two headings read alike, the source gives them in different places.

Tests used:
[1] = test system: Passive cutaneous anaphylaxis (PCA); assay: Passive cutaneous anaphylaxis (PCA) suppressing effect, method of J. Goose et al; assay type: in vivo, rats (Sprague Dawley-strain); conditions: iv, 40 min, rat PCA, compound given intravenously with antigen and Evans blue
Protocol: According to the method of J. Goose et al (see Immunology 16, 749, 1969), PCA reaction was carried out in the following manner.
To male rats (Sprague Dawley-strain; hereinafter abbreviated as SD-strain), weighing 120 to 150 g, 10 mg/kg of ovalubumin was administered intramuscularly and 2 x 10^10 cells of Bodetalla pertussis vaccine intraperitoneally. After 10 to 12 days, each rat was bled and antiserum was separated.
To other rats (SD-strain, weighing 120 to 150 g) shaved at the back, under ether anesthetization, 0.1 ml of the above antiserum diluted 4-fold was injected intradermally for dermal sensitization. After 48 hours, 1 mg/kg of ovalubumin (antigen), 1 mg/kg of Evans blue (dye) and various N^6-ω-aminoalkyl adenosine compounds and DSCG or isotonic saline were challenged intravenously. After 40 minutes, the diameter of dye spots on the skin and the leak quantity of dye were measured to determine ED50 (50% effective amount) for each compound.
The leak quantity of dye was determined by extracting the dye from the skin peeled off with potassium hydroxide, removing proteins with acetoneafter neutralization with phosphoric acid, and thereafter measuring absorbance at 620 nm of the resultant extract, which step was then followed by calculation therefrom. The N^6-ω-aminoalkyl adenosine compounds provided for the tests are enumerated below: […]

Acute toxicity tests = conditions: mouse, in vivo, ip; male mice, intraperitoneally, free form in isotonic saline solution or suspension; brackets = 95% confidence limit
Protocol: To ICR-JCL-strain mice (male, weighing 24 to 28 g), various N^6-w-aminoalkyl adenosine compound-s (each in free form) were administered as isotonic saline solutions or suspensions each in a dosage of 0.1 ml/10 g intraperitoneally for determination of LD50.

[2] = diameter of dye spots on the skin after 40 minutes, read-out: ED50 By diameter
[3] = leak quantity of dye after 40 minutes (absorbance at 620 nm), read-out: ED50 By dye quantity

Structure (SMILES): O=C(O)c1cc(=O)c2c(OCC(O)COc3cccc4oc(C(=O)O)cc(=O)c34)cccc2o1 [DSCG, disodium cromoglycate, reference compound]
- ED50 [1, 2]: 3.3 mg/kg
- ED50 [1, 3]: 3 mg/kg

Structure (SMILES): NCCCNc1ncnc2c1ncn2[C@@H]1O[C@H](CO)[C@@H](O)[C@H]1O [compound 1, N^6-(3-amino-n-propyl)-Ado]
- ED50 [1, 2]: 0.87 mg/kg
- ED50 [1, 3]: 0.2 mg/kg

Structure (SMILES): NCCCCCCNc1ncnc2c1ncn2[C@@H]1O[C@H](CO)[C@@H](O)[C@H]1O [compound 2, N^6-(6-amino-n-hexyl)-Ado]
- ED50 [1, 2]: 0.15 mg/kg
- ED50 [1, 3]: 0.06 mg/kg

Structure (SMILES): NCCCCCCCNc1ncnc2c1ncn2[C@@H]1O[C@H](CO)[C@@H](O)[C@H]1O [compound 3, N^6-(7-amino-n-heptyl)-Ado]
- LD50 (Acute toxicity tests): 145 mg/kg
- ED50 [1, 2]: 0.058 mg/kg
- ED50 [1, 3]: 0.06 mg/kg

Structure (SMILES): NCCCCCCCCCNc1ncnc2c1ncn2[C@@H]1O[C@H](CO)[C@@H](O)[C@H]1O [compound 4, N^6-(9-amino-n-nonyl)-Ado]
- LD50 (Acute toxicity tests): 175 mg/kg
- ED50 [1, 2]: 0.084 mg/kg
- ED50 [1, 3]: 0.084 mg/kg

Structure (SMILES): NCCCNc1ncnc2c1ncn2[C@@H]1O[C@H](COP(=O)(O)O)[C@@H](O)[C@H]1O [compound 5, N^6-(3-amino-n-propyl)-5'-AMP]
- ED50 [1, 2]: 0.46 mg/kg
- ED50 [1, 3]: 0.31 mg/kg

Structure (SMILES): NCCCCCCNc1ncnc2c1ncn2[C@@H]1O[C@H](COP(=O)(O)O)[C@@H](O)[C@H]1O [compound 6, N^6-(6-amino-n-hexyl)-5'-AMP]
- ED50 [1, 2]: 0.51 mg/kg
- ED50 [1, 3]: 0.32 mg/kg

Structure (SMILES): NCCCCCCCCCNc1ncnc2c1ncn2[C@@H]1O[C@H](COP(=O)(O)O)[C@@H](O)[C@H]1O [compound 7, N^6-(9-amino-n-nonyl)-5'-AMP]
- LD50 (Acute toxicity tests): 195 mg/kg
- ED50 [1, 2]: 0.29 mg/kg
- ED50 [1, 3]: 0.16 mg/kg

Structure (SMILES): NCCCCNc1ncnc2c1ncn2[C@@H]1O[C@H](CO)[C@@H](OP(=O)(O)O)[C@H]1O [compound 8]
- ED50 [1, 2]: 1.7 mg/kg
- ED50 [1, 3]: 0.64 mg/kg

Structure (SMILES): NCCCCCCNc1ncnc2c1ncn2[C@@H]1O[C@H](CO)[C@@H](OP(=O)(O)O)[C@H]1O [compound 9, N^6-(6-amino-n-hexyl)-3'-AMP]
- ED50 [1, 2]: 1.9 mg/kg
- ED50 [1, 3]: 0.7 mg/kg

Structure (SMILES): NCCCCCCCCNc1ncnc2c1ncn2[C@@H]1O[C@H](CO)[C@@H](OP(=O)(O)O)[C@H]1O [compound 10, N^6-(8-amino-n-octyl)-3'-AMP]
- LD50 (Acute toxicity tests): 220 mg/kg
- ED50 [1, 2]: 1.5 mg/kg
- ED50 [1, 3]: 0.7 mg/kg

Structure (SMILES): NCCCCNc1ncnc2c1ncn2[C@@H]1O[C@@H]2COP(=O)(O)O[C@H]2[C@H]1O [compound 11, N^6-(4-amino-n-butyl)-cAMP]
- ED50 [1, 2]: 15 mg/kg
- ED50 [1, 3]: 9.4 mg/kg

Structure (SMILES): NCCCCCCNc1ncnc2c1ncn2[C@@H]1O[C@@H]2COP(=O)(O)O[C@H]2[C@H]1O [compound 12, N^6-(6-amino-n-hexyl)-cAMP]
- LD50 (Acute toxicity tests): 165 mg/kg
- ED50 [1, 2]: 3.3 mg/kg
- ED50 [1, 3]: 3.2 mg/kg

Structure (SMILES): NCCCCCCCCNc1ncnc2c1ncn2[C@@H]1O[C@@H]2COP(=O)(O)O[C@H]2[C@H]1O [compound 13, N^6-(8-amino-n-octyl)-cAMP]
- ED50 [1, 2]: 3.7 mg/kg
- ED50 [1, 3]: 3.1 mg/kg

Structure (SMILES): NCCCCCCCCCNc1ncnc2c1ncn2[C@@H]1O[C@@H]2COP(=O)(O)O[C@H]2[C@H]1O [compound 14, N^6-(9-amino-n-nonyl)-cAMP]
- ED50 [1, 2]: > 3.3 mg/kg
- ED50 [1, 3]: 3.3 mg/kg

Structure (SMILES): NCCCCCCCCCCNc1ncnc2c1ncn2[C@@H]1O[C@@H]2COP(=O)(O)O[C@H]2[C@H]1O [compound 15, N^6-(10-amino-n-decanyl)-cAMP]
- ED50 [1, 2]: 8.2 mg/kg
- ED50 [1, 3]: 6 mg/kg
